From ChEMBL document CHEMBL1134102, “The binding of arylguanidines at 5-HT(3) serotonin receptors: a structure-affinity investigation” (Bioorg Med Chem Lett, 2001)

Target: Serotonin 3 (5-HT3) receptor
Experiment: Binding affinity to 5-HT3 serotonin receptor in NG 108-15 neuroblastoma glioma cells using [3H]GR-65630 radioligand.

| SMILES | Ki |
| --- | --- |
| N=C(N)Nc1cc(Cl)c(Cl)c(Cl)c1 | 0.7 nM |
| NC(N)=Nc1cccc(Cl)c1 | 32 nM |
| Nc1nc(Nc2cccc(Cl)c2)n[nH]1 | > 10000 nM |
| N=C(N)NC(=N)Nc1cc(Cl)c(Cl)c(Cl)c1 | 2.7 nM |
| C/N=C(\N)Nc1cccc(Cl)c1 | 450 nM |
| Clc1cccc(NC2=NCCN2)c1 | > 10000 nM |
| Cc1ccc(NC(=N)N=C(N)N)cc1 | 890 nM |
| NC(N)=Nc1ccc2ccccc2c1 | 18 nM |
| C/N=C(\NC)Nc1cccc(Cl)c1 | > 10000 nM |
| N=C(N)N=C(N)Nc1cc(Cl)cc(Cl)c1 | 1.8 nM |
| CN(C(=N)N)c1cccc(Cl)c1 | 6200 nM |
| N=C(N)N=C(N)Nc1ccc2ccccc2c1 | 14 nM |
| NC(N)=Nc1cccc(C(F)(F)F)c1 | 2440 nM |
| N=C(N)NC(=N)Nc1ccc(Cl)cc1 [4-CHLOROPHENYLBIGUANIDE] | 210 nM |

Continued, values first:

| Ki | SMILES |
| --- | --- |
| 18 nM | N=C(N)NC(=N)Nc1cccc(Cl)c1 |
| 5 nM | N=C(N)Nc1cc(Cl)cc(Cl)c1 |
| 990 nM | COc1ccc(NC(=N)N)cc1 |
| 3.1 nM | N=C(N)Nc1ccc(Cl)c(Cl)c1 |
| 326 nM | N=C(N)Nc1ccc(Cl)cc1 |
| 12 nM | N=C(N)NC(=N)Nc1ccc(Cl)c(Cl)c1 |
| 2710 nM | COc1ccc(NC(=N)N)cc1OC |
| 36 nM | N=C(N)Nc1ccc(Cl)c(C(F)(F)F)c1 |
| 442 nM | Cc1ccc(NC(=N)N)cc1 |
| 230 nM | N=C(N)Nc1ccc(C(F)(F)F)cc1 |
| 274 nM | N=C(N)Nc1ccc2c(c1)OCO2 |
